According to patent publication US20170327598A1, “SINGLE DOMAIN ANTIBODIES DIRECTED AGAINST INTRACELLULAR ANTIGENS” (SINGH MOLECULAR MEDICINE, LLC, priority 2014, published 2017):
Values joined by “and” are separate entries in the source; they are usually repeats but may differ in a detail not shown here. Equal entries are not always repeated. Where two headings read alike, the source gives them in different places.

What was measured:
[1] = test system: VEGF-A production in ARPE-19 cells; experiment: VEGF-A ELISA in ARPE-19 retinal cells, Experiment 1; format: cell-based, human; conditions: for Mean (pg VEGF-A per mL): mean of Adj. Result, Wells 1-3; for Mean (pg VEGF-A per μg protein): mean of Wells 1-3; for % Control: normalized for protein; for Adj. Result (pg VEGF-A per mL) / Result (pg VEGF-A per mL): 72 Hr; for Adj. Result (pg VEGF-A per mL): per well, adjusted for dilution; for Result (pg VEGF-A per mL): single reads, higher than top of standard curve
DU145 cells = experiment: MTT proliferation assay, DU145; format: cell-based, human; set-up: Mean Abs: unit of the concentration uncertain
SJSA cells = experiment: Anti-proliferative effect, SJSA cells; format: cell-based; conditions: for Absorbance ± S.E.: 72 hr
[2] = test system: PANC-1 human pancreatic cancer xenograft
[3] = test system: MDA-MB-231 human breast cancer xenograft; conditions: for Individual Tumor Measurements: listed as anti-STAT3 bacterial VHH13
HT1080 cells = experiment: Anti-proliferative effect, HT1080 cells; format: cell-based; conditions: for Absorbance ± S.E.: 72 hr
PANC-1 cells [4] = experiment: PANC-1 growth inhibition with or without Gemcitabine; conditions: SBT-100 100 μg/ml alone, 72 hours (Table 44)
MCF-7 cells = experiment: MTT proliferation assay, MCF-7; format: cell-based, human; conditions: MCF-7, 72 hours
PANC-1 cells [5] = experiment: Internalization of sdAb, anti-His tag staining, PANC-1; format: cell-based; conditions: 18 hours
Description: (§1) An anti-HIV-1 Reverse Transcriptase (RT) sdAb was used as a negative control.
(§2) The slides were incubated for 18 hours after sdAb addition. The chambers were briefly rinsed with media and fixed in ice-cold methanol for 5-10 min. The chambers were then dried and stained with a fluorescent anti-His tag antibody (1:200)(Novus Biologicals, Littleton, Colo.) for 45 min at room temperature. The slides were rinsed in PBS for 5 minutes and mounted.

[6] = test system: MCF-7 human breast tumor xenograft; conditions: for Tumor Volume TV (mm^3), group Mean / Tumor caliper measurement W (mm), individual animal / Tumor Volume TV (mm^3), individual animal / Tumor caliper measurement L (mm), individual animal: 1 mg/kg ip tid × 14
MDA-MB 231 cells = experiment: Internalization of sdAb, anti-His tag staining, MDA-MB 231; format: cell-based; conditions: 18 hours
Description: as §1, §2

human KRAS = experiment: Biacore 3000 protein binding, KRAS ligand immobilized (Example 22); conditions: sdAb as analyte
[7] = 1 mg/kg ip tid × 14 first Day 2 doses

Anti-STAT3 VHH13: anti-STAT3 single domain antibody, SEQ ID NO:3; bacterially produced form referred to as SBT-100
% Negative Control ([1]; 0.1 μg/well, 24 Hr): 71.1%
Mean (pg VEGF-A per mL) ([1]; 0.1 μg/well, 24 Hr): 2060 pg VEGF-A per mL
Mean (pg VEGF-A per μg protein) ([1]; 0.1 μg/well, 24 Hr): 66 pg VEGF-A per μg protein
% Control ([1]; 0.1 μg/well, 24 Hr): 76.8%
Adj. Result (pg VEGF-A per mL) ([1]; 0.1 μg/well): >12,000 pg VEGF-A per mL
Result (pg VEGF-A per mL) ([1]; 0.1 μg/well): >6,000 pg VEGF-A per mL
Mean (pg VEGF-A per mL) ([1]; 0.5 μg/well, 24 Hr): 2664 pg VEGF-A per mL
Mean (pg VEGF-A per μg protein) ([1]; 0.5 μg/well, 24 Hr): 99 pg VEGF-A per μg protein
% Control ([1]; 0.5 μg/well, 24 Hr): 115.8%
Adj. Result (pg VEGF-A per mL) ([1]; 0.5 μg/well): >12,000 pg VEGF-A per mL
Result (pg VEGF-A per mL) ([1]; 0.5 μg/well): >6,000 pg VEGF-A per mL
Average Absorbance (DU145 cells; DU145, 50 μg): 0.98
Average % Inhibition (DU145 cells; DU145, 50 μg (50.0 μg/ml), listed as anti-STAT3 bacterial VHH13): 31.2%
Absorbance (DU145 cells; DU145, 50 μg, Experiments 1-3, listed as Anti-STAT3 Bacterial VHH13): 0.68 and 1.2 and 1.03
Average Absorbance (DU145 cells; DU145, 100 μg): 0.10
Mean Abs (DU145 cells; Table 18, DU145, 0.39 (unit uncertain)): 0.906
Mean Abs (DU145 cells; Table 18, DU145, 3.13 (unit uncertain)): 0.783
Mean Abs (DU145 cells; Table 18, DU145, 6.25 (unit uncertain)): 0.770
Mean Abs (DU145 cells; Table 18, DU145, 25 (unit uncertain)): 0.359
Mean Abs (DU145 cells; Table 18, DU145, 50 (unit uncertain)): 0.161
Mean Abs (DU145 cells; Table 18, DU145, 100 (unit uncertain)): 0.039
Mean Abs (DU145 cells; Table 18, DU145, 200 (unit uncertain)): 0.039
Absorbance ± S.E. (SJSA cells; 25 μg/ml): 1.36 ± 0.09
Absorbance ± S.E. (SJSA cells; 50 μg/ml): 0.90 ± 0.04
Absorbance ± S.E. (SJSA cells; 100 μg/ml): 0.27 ± 0.01
Absorbance ± S.E. (SJSA cells; 200 μg/ml): 0.26 ± 0.01
IC50 (SJSA cells; SJSA cells): 51 µg/mL
growth inhibition ([2]; 500 μg/kg bw IP QDx14): no significant growth inhibition
tumor doubling time ([2]; 500 μg/kg bw IP QDx14): 23.02 days
mean tumor size (±SE) ([2]; treatment group, day 14 of dosing): 318.74 ± 29.76
% mean tumor growth inhibition ([3]; 500 μg/kg bw IP QDx14): 33.64%
tumor doubling time ([3]; 500 μg/kg bw IP QDx14): 61.06 days
mean tumor size (±SE) ([3]; 500 μg/kg bw IP QDx14, day 14 of dosing): 118.86±15.94
Individual Tumor Measurements ([3]; Group 2, 500 μg/kg bw IP QDx14, single animals, Day 1): 123.94 mm^3 and 85.93 mm^3 and 147.34 mm^3 and 115.91 mm^3 and 73.23 mm^3
Tumor Measurements, group Mean ([3]; Group 2, Day 1): 102.61 mm^3
Tumor Measurements, group Mean ([3]; Group 2, Day 6): 101.16 mm^3
Tumor Measurements, group Mean ([3]; Group 2, Day 9): 112.44 mm^3
Tumor Measurements, group Mean ([3]; Group 2, Day 12): 112.92 mm^3
Tumor Measurements, group Mean ([3]; Group 2, Day 16): 118.86 mm^3
Tumor Measurements, group Mean ([3]; Group 2, Day 20): 128.49 mm^3
Individual Tumor Measurements ([3]; Group 2, single animals, Day 6): 114.91 mm^3 and 101.06 mm^3 and 148.72 mm^3 and 103.64 mm^3 and 82.59 mm^3
Individual Tumor Measurements ([3]; Group 2, single animals, Day 9): 129.22 mm^3 and 112.60 mm^3 and 169.69 mm^3 and 108.37 mm^3 and 110.13 mm^3
Individual Tumor Measurements ([3]; Group 2, single animals, Day 12): 176.04 mm^3 and 112.24 mm^3 and 185.08 mm^3 and 141.21 mm^3 and 91.22 mm^3
Individual Tumor Measurements ([3]; Group 2, single animals, Day 16): 170.09 mm^3 and 139.56 mm^3 and 170.07 mm^3 and 144.51 mm^3
Individual Tumor Measurements ([3]; Group 2, single animals, Day 20): 162.98 mm^3 and 96.43 mm^3 and 256.71 mm^3 and 119.42 mm^3
Absorbance ± S.E. (HT1080 cells; 25 μg/ml): 1.09 ± 0.01
Absorbance ± S.E. (HT1080 cells; 50 μg/ml): 0.42 ± 0.04
Absorbance ± S.E. (HT1080 cells; 100 μg/ml): 0.27 ± 0.01
Absorbance ± S.E. (HT1080 cells; 200 μg/ml): 0.22 ± 0.02
IC50 (HT1080 cells; HT1080 cells): 33 µg/mL
Absorbance (PANC-1 cells [4]): 0.333
Mean Abs (MCF-7 cells; 0.39 μg/ml): 0.818
Mean Abs (MCF-7 cells; 3.13 μg/ml): 0.689
Mean Abs (MCF-7 cells; 6.25 μg/ml): 0.435
% Inhibition (MCF-7 cells; 25 μg/ml): 62.1%
Mean Abs (MCF-7 cells; 25 μg/ml): 0.212
% Inhibition (MCF-7 cells; 50 μg/ml): 89.9%
Mean Abs (MCF-7 cells; 50 μg/ml): 0.057
% Inhibition (MCF-7 cells; 100 μg/ml): 93.2%
Mean Abs (MCF-7 cells; 100 μg/ml): 0.038
% Inhibition (MCF-7 cells; 200 μg/ml): 92.9%
Mean Abs (MCF-7 cells; 200 μg/ml): 0.040
internalization, anti-His tag staining (PANC-1 cells [5]): positive cytoplasmic staining
% TGD [6, 7]: 42%
Median TTE [6, 7]: 32.9
T-C [6, 7]: 9.7
Tumor Volume TV (mm^3), group Mean ([6]; Day 1): 117 mm^3
Tumor caliper measurement W (mm), individual animal ([6]; Day 1): 6 mm
Tumor Volume TV (mm^3), individual animal ([6]; Day 1, 1 mg/kg): 108 mm^3 (2×) and 126 mm^3 (2×)
Tumor caliper measurement L (mm), individual animal ([6]; Day 1, 1 mg/kg): 6 mm (2×) and 7 mm (2×)
Tumor Volume TV (mm^3), group Mean ([6]; Day 4): 155.3 mm^3
Tumor Volume TV (mm^3), individual animal ([6]; Day 4, 1 mg/kg): 196 mm^3 and 126 mm^3 and 144 mm^3
Tumor caliper measurement L (mm), individual animal ([6]; Day 4, 1 mg/kg): 8 mm (2×) and 7 mm
Tumor caliper measurement W (mm), individual animal ([6]; Day 4, 1 mg/kg): 7 mm and 6 mm (2×)
Tumor Volume TV (mm^3), group Mean ([6]; Day 8): 253.7 mm^3
Tumor Volume TV (mm^3), individual animal ([6]; Day 8, 1 mg/kg): 320 mm^3 and 196 mm^3 and 245 mm^3
Tumor caliper measurement L (mm), individual animal ([6]; Day 8, 1 mg/kg): 8 mm
Tumor caliper measurement W (mm), individual animal ([6]; Day 8, 1 mg/kg): 7 mm
Tumor Volume TV (mm^3), group Mean ([6]; Day 11): 307 mm^3
Tumor Volume TV (mm^3), individual animal ([6]; Day 11, 1 mg/kg): 405 mm^3 and 196 mm^3 and 320 mm^3
Tumor caliper measurement L (mm), individual animal ([6]; Day 11, 1 mg/kg): 8 mm
Tumor caliper measurement W (mm), individual animal ([6]; Day 11, 1 mg/kg): 9 mm and 7 mm
Tumor Volume TV (mm^3), group Mean ([6]; Day 15): 346.5 mm^3
Tumor Volume TV (mm^3), individual animal ([6]; Day 15, 1 mg/kg): 405 mm^3 and 288 mm^3
Tumor caliper measurement L (mm), individual animal ([6]; Day 15, 1 mg/kg): 9 mm
Tumor caliper measurement W (mm), individual animal ([6]; Day 15, 1 mg/kg): 9 mm
Tumor Volume TV (mm^3), group Mean ([6]; Day 18): 346.5 mm^3
Tumor Volume TV (mm^3), individual animal ([6]; Day 18, 1 mg/kg): 405 mm^3 and 288 mm^3
Tumor caliper measurement L (mm), individual animal ([6]; Day 18, 1 mg/kg): 9 mm
Tumor caliper measurement W (mm), individual animal ([6]; Day 18, 1 mg/kg): 9 mm
Tumor Volume TV (mm^3), group Mean ([6]; Day 22): 477.5 mm^3
Tumor Volume TV (mm^3), individual animal ([6]; Day 22, 1 mg/kg): 550 mm^3 and 405 mm^3
Tumor caliper measurement L (mm), individual animal ([6]; Day 22, 1 mg/kg): 11 mm
Tumor caliper measurement W (mm), individual animal ([6]; Day 22, 1 mg/kg): 9 mm
Tumor Volume TV (mm^3), group Mean ([6]; Day 25): 634.5 mm^3
Tumor Volume TV (mm^3), individual animal ([6]; Day 25, 1 mg/kg): 864 mm^3 and 405 mm^3
Tumor caliper measurement L (mm), individual animal ([6]; Day 25, 1 mg/kg): 12 mm
Tumor caliper measurement W (mm), individual animal ([6]; Day 25, 1 mg/kg): 12 mm and 9 mm
Tumor Volume TV (mm^3), group Mean ([6]; Day 29): 799.3 mm^3
Tumor Volume TV (mm^3), individual animal ([6]; Day 29, 1 mg/kg): 1099 mm^3 and 500 mm^3
Tumor caliper measurement L (mm), individual animal ([6]; Day 29, 1 mg/kg): 13 mm
Tumor caliper measurement W (mm), individual animal ([6]; Day 29, 1 mg/kg): 13 mm
Tumor Volume TV (mm^3), group Mean ([6]; Day 32): 500 mm^3
Tumor Volume TV (mm^3), individual animal ([6]; Day 32): 500 mm^3
Tumor Volume TV (mm^3), group Mean ([6]; Day 36): 864 mm^3
Tumor Volume TV (mm^3), individual animal ([6]; Day 36): 864 mm^3
Tumor caliper measurement L (mm), individual animal ([6]; Day 36): 12 mm
Tumor caliper measurement W (mm), individual animal ([6]; Day 36): 12 mm
Tumor Volume TV (mm^3), group Mean ([6]; Day 39): 1098.5 mm^3
Tumor Volume TV (mm^3), individual animal ([6]; Day 39): 1099 mm^3
Tumor caliper measurement L (mm), individual animal ([6]; Day 39): 13 mm
Tumor caliper measurement W (mm), individual animal ([6]; Day 39): 13 mm
internalization, anti-His tag staining (MDA-MB 231 cells): positive cytoplasmic staining
binding to KRAS ligand (human KRAS): bound
